Source: patent US20100298340A1, “Thiazol-Guanidine Derivatives Useful As A (Beta)-Related Pathologies” (AstraZeneca AB, priority 2006, published 2010)

Biological target: T1, human β-Secretase (Homo sapiens, UniProt P56817)
T1 construct: The soluble part of the human β-Secretase (AA 1-AA 460) was cloned; Fc domain of IgG1 (C); made in house
Assay: TR-FRET Assay
Format: biochemical
Protocol: The enzyme used in the IGEN Cleavage-, Fluorescent-, TR-FRET- and the BiaCore assay is described as follows:
The soluble part of the human β-Secretase (AA 1-AA 460) was cloned into the ASP2-Fc10-1-IRES-GFP-neoK mammalian expression vector. The gene was fused to the Fc domain of IgG1 (affinity tag) and stably cloned into HEK 293 cells. Purified sBACE-Fc is stored in Tris buffer, pH 9.2 and has a purity of 95%.
Dilute the enzyme (truncated form) to 6 μg/mL (stock 1.3 mg/mL) and the substrate (Europium)CEVNLDAEFK(Qsy7) to 200 nM (stock 60 μM) in reaction buffer (NaAcetate, chaps, triton x-100, EDTA pH4.5). The Biomek FX is used for all liquid handling and the enzyme and substrate solutions are kept on ice until they are placed in Biomek FX. Enzyme (9 μl) is added to the plate then 1 μl of compound in dimethylsulphoxide is added, mixed and pre-incubated for 10 minutes. Substrate (10 μl) is then added, mixed and the reaction proceeds in the dark for 15 minutes at room temperature. The reaction is stopped with the addition of Stop solution ([…] pH 9). The fluorescence of the product is measured on a Victor II plate reader with an excitation wavelength of 340 nm and an emission wavelength of 615 nm. The assay is done in a Costar 384 well round bottom, low volume, non-binding surface (Corning #3676). The final concentration of the enzyme is 0.3 nM; the final concentration of substrate is 100 nM (Km of ˜250 nM). The dimethylsulphoxide control defines the 100% activity level and 0% activity is defined by only addition of the peptide substrate.

T1 sequence (P56817 22-460): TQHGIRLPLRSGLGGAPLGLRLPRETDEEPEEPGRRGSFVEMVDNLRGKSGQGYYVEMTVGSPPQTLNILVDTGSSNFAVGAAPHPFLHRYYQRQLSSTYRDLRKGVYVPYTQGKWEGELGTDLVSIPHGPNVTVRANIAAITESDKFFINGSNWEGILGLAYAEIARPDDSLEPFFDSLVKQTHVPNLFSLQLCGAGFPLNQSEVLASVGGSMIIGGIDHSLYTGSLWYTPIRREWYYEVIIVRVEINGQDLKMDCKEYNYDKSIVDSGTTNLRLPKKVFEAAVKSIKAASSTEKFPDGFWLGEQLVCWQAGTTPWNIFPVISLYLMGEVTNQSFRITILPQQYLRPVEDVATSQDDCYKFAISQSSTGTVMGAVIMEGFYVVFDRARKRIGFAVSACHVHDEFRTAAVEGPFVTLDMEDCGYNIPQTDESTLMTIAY

IC50 | Structure (SMILES)
6.03 µM | CCc1ccc2c(Cl)c(C(=O)Nc3cccc(-c4sc(NC(=N)N)nc4C)c3)sc2c1 [Example 18, N-[3-(2-{[Amino(imino)methyl]amino}-4-methyl-1,3-thiazol-5-yl)phenyl]-3-chloro-6-ethyl-1-benzothiophene-2-carboxamide]
5.01 µM | CCc1nc(NC(=N)N)sc1-c1ccc(NCC2CCN(C(=O)OCc3ccccc3)CC2)cc1 [Example 20, Benzyl 4-({[4-(2-{[amino(imino)methyl]amino}-4-ethyl-1,3-thiazol-5-yl)phenyl]amino}methyl)piperidine-1-carboxylate]
4.47 µM | Cc1nc(NC(=N)N)sc1-c1cccc(NC(=O)c2ccc(-c3csnn3)cc2)c1 [Example 17, N-[3-(2-{[Amino(imino)methyl]amino}-4-methyl-1,3-thiazol-5-yl)phenyl]-4-(1,2,3-thiadiazol-4-yl)benzamide]
